Reference: PMC9127750, “Structure-based design of CDC42 effector interaction inhibitors for the treatment of cancer” (Cell reports, 2022)
Values joined by “and” are separate entries in the source; they are usually repeats but may differ in a detail not shown here. Identical values can stand only once.

System: WM3248 melanoma cells, 486 antibodies
Test: Reverse phase protein arrays (RPPA)
Type: cell-based, Human
From the text: Pellets were snap frozen in liquid nitrogen and shipped to MD Anderson Cancer Center core RPPA facility for RPPA analysis (Table S5). Three biological replicates for each sample were generated.
Nomenclatures on the RPPA heatmaps: name_of_antibody.species_of_antibody.status_of_antibody. V - antibody validated; C - validation of antibody in progress; Q - antibody nonspecific; E – under evaluation; antibodies raised in M - mouse, G - goat, R - rabbit, or T - rat.

CN(C)c1cccc(Nc2cc(-c3ccccc3)nc(C3CCNCC3)n2)c1 [ARN22089, N1,N1-dimethyl-N3-(6-phenyl-2-(piperidin-4-yl)pyrimidin-4-yl)benzene-1,3-diamine]
RPPA Gab2.R.V (10 uM, single samples): 0.930 and 0.844
RPPA Gli1.R.C (10 uM, single samples): 0.975 and 0.972
RPPA Gli3.R.C (10 uM, single samples): 0.999 and 0.965 and 0.950
RPPA Glucocorticoid.Receptor.R.V (10 uM, single samples): 1.129 and 1.132 and 0.984
RPPA Glutamate.D1.2.R.V (10 uM, single samples): 1.103 and 0.990
RPPA Glutaminase.R.C (10 uM, single samples): 0.915 and 0.958 and 0.933
RPPA Granzyme.B.R.V (10 uM, single samples): 0.958 and 0.982 and 0.983
RPPA Grp75.R.C (10 uM, single samples): 1.161 and 1.138 and 0.943
RPPA Gys.R.V (10 uM, single samples): 0.976 and 0.935 and 1.023
RPPA Gys_pS641.R.V (10 uM, single samples): 0.940 and 1.033 and 1.049
RPPA H2AX_pS139.R.C (10 uM, single samples): 1.009 and 0.918
RPPA H2AX_pS140.M.C (10 uM, single samples): 1.079 and 1.061
RPPA HER2.M.V (10 uM, single samples): 1.048
RPPA HER2_pY1248.R.V (10 uM, single samples): 0.857 and 0.890 and 0.990
RPPA HER3.R.V (10 uM, single samples): 1.151 and 0.962 and 0.842
RPPA HER3_pY1289.R.C (10 uM, single samples): 0.893 and 0.994
RPPA HES1.R.V (10 uM, single samples): 0.925 and 1.199 and 0.845
RPPA Heregulin.R.V (10 uM, single samples): 0.811 and 0.959 and 0.936
RPPA eEF2K.R.V (10 uM, single samples): 1.065
RPPA eIF4E.R.V (10 uM, single samples): 1.415 and 0.768 and 0.752
RPPA eIF4E_pS209.R.V (10 uM, single samples): 0.931 and 1.049 and 1.085
RPPA eIF4G.R.C (10 uM, single samples): 1.057 and 0.870 and 0.859
RPPA MYH11.R.C Average (20 uM): 1.101
RPPA Myosin.IIa.R.C Average (20 uM): 0.941
RPPA Myosin.IIa_pS1943.R.V Average (20 uM): 0.973
RPPA Myt1.R.C Average (20 uM): 1.012
RPPA N.Cadherin.R.V Average (20 uM): 1.035
RPPA N.Ras.M.V Average (20 uM): 0.928
RPPA NAPSIN.A.R.C Average (20 uM): 1.046
RPPA NDRG1_pT346.R.V Average (20 uM): 0.991
RPPA NDUFB4.R.V Average (20 uM): 1.026
RPPA NRF2.R.C Average (20 uM): 0.936
RPPA Notch1.cleaved.R.V Average (20 uM): 0.890
RPPA Oct.4.R.C Average (20 uM): 1.121
RPPA P.Cadherin.R.C Average (20 uM): 1.190
RPPA PAICS.R.C Average (20 uM): 0.891
RPPA PAK1.R.V Average (20 uM): 0.919
RPPA PAK_pS474_S602_S560.R.V Average (20 uM): 1.203
RPPA PAK_pT423_T402.R.C Average (20 uM): 1.013
RPPA PAR.R.C Average (20 uM): 1.051
RPPA PARG.R.C Average (20 uM): 1.310
RPPA PARP.R.V Average (20 uM): 0.981
RPPA PAX6.R.V Average (20 uM): 1.013
RPPA PAX8.R.C Average (20 uM): 0.970
RPPA PCNA.M.C Average (20 uM): 0.864
RPPA PD.L1.R.C Average (20 uM): 0.983
RPPA PDH.M.V Average (20 uM): 0.994
RPPA PDHA1.R.V Average (20 uM): 1.030
RPPA PDHK1.R.C Average (20 uM): 0.963
RPPA PDK1.R.V Average (20 uM): 1.096
RPPA PDK1_pS241.R.V Average (20 uM): 0.972
RPPA PEA.15.R.V Average (20 uM): 0.952
RPPA PEA.15_pS116.R.V Average (20 uM): 1.019
RPPA PERK.R.V Average (20 uM): 0.988
RPPA PGM1.R.V Average (20 uM): 0.940
RPPA PHGDH.R.C Average (20 uM): 0.998
RPPA PHLPP.R.V Average (20 uM): 1.124
RPPA PI3K.p85.R.C Average (20 uM): 0.900
RPPA PI3K.p110.a.R.C Average (20 uM): 0.931
RPPA PKA.a.R.V Average (20 uM): 0.928
RPPA PKC.a.b.II_pT638_T641.R.V Average (20 uM): 0.926
RPPA PKC.b.II_pS660.R.V Average (20 uM): 1.079
RPPA PKCa.R.V Average (20 uM): 1.559
RPPA PKM2.R.C Average (20 uM): 0.899
RPPA PLC.gamma1_pS1248.R.V Average (20 uM): 0.895
RPPA PLC.gamma2_pY759.R.V Average (20 uM): 0.983
RPPA PLK1.R.C Average (20 uM): 0.920
RPPA PMS2.R.V Average (20 uM): 0.986
RPPA PR.R.V Average (20 uM): 0.956
RPPA PRAS40.M.C Average (20 uM): 1.227
RPPA PRAS40_pT246.R.V Average (20 uM): 1.102
RPPA PRC1_pT481.R.C Average (20 uM): 1.084
RPPA Patched.R.C Average (20 uM): 1.079
RPPA Paxillin.R.C Average (20 uM): 0.827
RPPA Pdcd4.R.C Average (20 uM): 0.990
RPPA Porin.M.V Average (20 uM): 1.051
RPPA p21.R.C Average (20 uM): 0.828
RPPA p27.Kip1.R.C Average (20 uM): 1.157
RPPA p27_pT157.R.C Average (20 uM): 1.214
RPPA p27_pT198.R.V Average (20 uM): 1.156
RPPA p38.MAPK.R.V Average (20 uM): 0.981
